In patent US20240408125A1, “COMPOSITION COMPRISING POLYGALATENOSIDE AS ACTIVE INGREDIENT FOR PREVENTION OR TREATMENT OF CANCER” (HOSEO UNIVERSITY ACADEMIC COOPERATION FOUNDATION, priority 2021, published 2024):

Legend:
Format in all cases: cell-based, Mouse
[1] = tested on: NOX2 protein; experiment: NOX2 protein expression by Western blot with densitometry relative to β-actin; details: B16-F10 cells, FIG. 2
Description: (§1) B16-F10 melanoma cells were cultured under conditions of 36.5° C. and 5% CO2 using a Dulbecco's modified Eagle's medium supplemented with 10% (v/v) fetal bovine serum and 1% (v/v) penicillin-streptomycin.
B16-F10 melanoma cells were cultured for 12 hours, and then treated with polygalatenoside A at concentrations of 0, 0.1, 0.3, 1, 3, and 10 μM for 24 hours, respectively. Thereafter, the cells were washed twice with PBS, and collected, and proteins were recovered by lysing the cells with a radioimmunoprecipitation assay (RIPA) buffer containing phenylmethylsulfonyl fluoride (PMSF). 50 μg of proteins was separated by sodium dodecyl sulfate poly-acrylamide gel electrophoresis (SDS-PAGE) and then transferred to a polyvinylidene fluoride (PVDF) membrane. The membrane was treated with a tris-buffered saline (TBS; pH 7.6) containing 5% (w/v) skim milk, 0.05% (v/v) tween-20, and 0.01% (w/v) sodium azide at 25° C. for 1 hour. The membrane was washed three times with TBST (TBS containing 0.05% (v/v) tween-20) and treated with an anti-NOX2 primary antibody and a horse radish peroxidase (HRP)-conjugated secondary antibody. The protein levels were visualized using enhanced chemiluminescence (ECL) and an X-ray film. The expression level of NOX2 protein compared to β-actin was shown in FIG. 2 through a densitometry of ImageJ software.

[2] = tested on: B16-F10 melanoma cells; experiment: WST8 cell viability assay; details: 3 μM for 48 hours, WST8, absorbance at 450 nm, FIG. 3
Description: as §1
B16-F10 melanoma cells were cultured in a 96-well cell culture plate for 12 hours, and then treated with polygalatenoside A at concentrations of 0, 0.1, 0.3, 1, 3, and 10 μM for 48 hours, respectively. The medium was treated with a WST8 Cell Viability Assay Reagent to a concentration of 10% (v/v) and cultured for 2 hours. Thereafter, cell viability was confirmed by measuring absorbance at 450 nm using a microplate reader, and the results were shown in FIG. 3.

[3] = tested on: B16-F10 melanoma cells; experiment: Viable cell number by trypan blue staining and hemocytometer; details: FIG. 4
Description: as §1
Next, in order to measure changes in cell number, B16-F10 cells were cultured for 12 hours, and then treated with polygalatenoside A at concentrations of 0, 0.1, 0.3, 1, 3, and 10 μM for 72 hours, respectively. The cells were collected every 24 hours, stained with trypan blue, and the number of viable cells was measured using a hemocytometer, and the results were shown in FIG. 4.

O=C(OCC1OC(OC2COC(CO)[C@@H](O)C2O)C(O)C(O)C1O)c1ccccc1 (some centres unmarked) [polygalatenoside A, Polygalatenoside A]
expression of NOX2 compared to untreated control group (fold) ([1]; 3 μM for 24 hours): about 1.4 times
expression of NOX2 compared to untreated control group ([1]; 0.1-10 μM for 24 hours): increased
cell viability (cell death effect) [2]: cell death effect was exhibited
growth inhibition effect (number of viable cells) ([3]; 3 μM up to 72 hours, compared with the other concentrations): most significantly shown
growth of melanoma cells (number of viable cells) ([3]; 0.1-10 μM up to 72 hours, counted every 24 hours): inhibited
